Test results taken from publication PMC4059350 (DNA repair, 2014).
Substitutions are numbered along the chain they refer to.

How the values were obtained:
Msh2-Msh3 [1] = biological target: T1, Msh2-Msh3 (Saccharomyces cerevisiae, UniProt P25336+P25847); assay: nitrocellulose filter binding, competition with […]-ATPγS after ADP pre-binding; settings: no DNA; 0.5 mM ADP, 8 μM ATPγS, 50 nM protein
T1 sequence (P25847 1-964): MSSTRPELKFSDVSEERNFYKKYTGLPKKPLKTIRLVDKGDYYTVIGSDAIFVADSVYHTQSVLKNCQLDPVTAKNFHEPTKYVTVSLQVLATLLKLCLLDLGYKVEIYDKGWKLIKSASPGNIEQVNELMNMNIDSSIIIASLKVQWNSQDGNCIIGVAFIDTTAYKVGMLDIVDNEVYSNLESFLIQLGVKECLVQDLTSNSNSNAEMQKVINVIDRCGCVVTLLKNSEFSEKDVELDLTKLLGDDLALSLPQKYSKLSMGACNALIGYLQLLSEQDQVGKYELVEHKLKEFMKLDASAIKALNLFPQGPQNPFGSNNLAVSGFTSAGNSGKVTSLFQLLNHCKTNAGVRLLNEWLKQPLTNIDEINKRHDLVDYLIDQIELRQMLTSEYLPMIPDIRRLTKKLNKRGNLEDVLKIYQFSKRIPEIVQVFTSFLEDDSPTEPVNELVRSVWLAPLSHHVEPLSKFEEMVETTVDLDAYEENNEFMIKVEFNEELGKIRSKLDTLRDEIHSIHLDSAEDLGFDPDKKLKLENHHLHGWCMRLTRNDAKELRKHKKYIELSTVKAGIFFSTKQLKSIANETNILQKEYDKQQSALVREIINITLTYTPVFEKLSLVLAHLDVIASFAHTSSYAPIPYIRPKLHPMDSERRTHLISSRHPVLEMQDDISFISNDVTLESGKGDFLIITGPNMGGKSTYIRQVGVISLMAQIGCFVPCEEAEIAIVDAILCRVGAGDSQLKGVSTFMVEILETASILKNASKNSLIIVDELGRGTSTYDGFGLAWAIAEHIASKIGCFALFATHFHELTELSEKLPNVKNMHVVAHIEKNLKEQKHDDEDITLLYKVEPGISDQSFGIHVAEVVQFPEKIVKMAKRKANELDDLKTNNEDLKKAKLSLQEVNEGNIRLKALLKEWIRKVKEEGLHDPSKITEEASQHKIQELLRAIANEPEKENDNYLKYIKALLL
T1 sequence (P25336 1-1018): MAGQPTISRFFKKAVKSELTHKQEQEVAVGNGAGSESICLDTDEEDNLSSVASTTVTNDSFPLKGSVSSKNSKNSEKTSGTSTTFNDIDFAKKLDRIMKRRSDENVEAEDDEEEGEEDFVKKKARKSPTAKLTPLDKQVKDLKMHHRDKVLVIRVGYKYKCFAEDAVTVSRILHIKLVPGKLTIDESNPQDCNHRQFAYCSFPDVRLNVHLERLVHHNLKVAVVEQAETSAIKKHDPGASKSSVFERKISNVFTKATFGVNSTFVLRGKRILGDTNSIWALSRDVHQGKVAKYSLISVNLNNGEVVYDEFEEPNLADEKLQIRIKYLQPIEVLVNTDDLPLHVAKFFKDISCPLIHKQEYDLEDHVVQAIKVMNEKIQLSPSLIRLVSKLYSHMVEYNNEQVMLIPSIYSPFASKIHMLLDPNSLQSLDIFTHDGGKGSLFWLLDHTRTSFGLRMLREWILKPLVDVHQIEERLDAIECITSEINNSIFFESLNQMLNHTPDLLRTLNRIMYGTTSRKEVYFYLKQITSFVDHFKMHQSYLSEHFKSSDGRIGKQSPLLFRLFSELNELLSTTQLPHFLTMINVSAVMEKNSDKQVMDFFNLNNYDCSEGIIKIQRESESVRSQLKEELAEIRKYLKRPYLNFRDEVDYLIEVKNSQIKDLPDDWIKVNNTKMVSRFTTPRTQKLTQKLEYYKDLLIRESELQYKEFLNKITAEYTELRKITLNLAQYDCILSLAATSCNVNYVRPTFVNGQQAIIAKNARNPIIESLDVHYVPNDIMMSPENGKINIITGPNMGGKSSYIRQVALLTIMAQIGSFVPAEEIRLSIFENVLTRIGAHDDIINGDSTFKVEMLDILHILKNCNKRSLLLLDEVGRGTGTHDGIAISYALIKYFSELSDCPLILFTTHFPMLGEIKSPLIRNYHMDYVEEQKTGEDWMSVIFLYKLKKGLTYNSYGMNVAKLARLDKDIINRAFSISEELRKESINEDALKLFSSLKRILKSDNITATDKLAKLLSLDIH

Msh2-Msh3 [2] = biological target: T1, Msh2-Msh3; assay: ATPγS titration into steady-state coupled ATPase assay; type: biochemical
Msh2-Msh3 [3] = biological target: T2, Msh2-Msh3 (Saccharomyces cerevisiae, UniProt P25336+P25847, P25336:Y942A); assay: as above; type: biochemical
T2 sequence (P25847 1-964): T1 sequence (P25847 1-964)
T2 sequence (P25336 1-1018 Y942A): T1 sequence (P25336 1-1018) with Y942A

Compound: Nc1ncnc2c1ncn2[C@@H]1O[C@H](COP(=O)(O)OP(=O)(O)O)[C@@H](O)[C@H]1O [ADP]
- fraction of ATPγS bound relative to no ADP, 30 s (Msh2-Msh3 [1]): 0.54 ± 0.15 fraction

Compound: Nc1ncnc2c1ncn2[C@@H]1O[C@H](CO[P@](=O)(O)O[P@](=O)(O)O[P@@](=O)(O)S)[C@@H](O)[C@H]1O [ATPγS]
- IC50 (Msh2-Msh3 [2]): 6.3 mM
- IC50 (Msh2-Msh3 [3]): 0.8 mM
